{"source": "patent US11987579B2", "about": "(Duke University, priority 2018, dated 2024)", "test_system": "CCD841Co colonic cells", "test": "Assessment of oxygen consumption rate (OCR), Seahorse XFp", "assay_type": "cell-based", "details": "1 μM FCCP, cells treated with DMSO control media", "description": "Colonic epithelial CCD841Co cells were plated in Seahorse XFp 8-well miniplates at 8000 cells/well and allowed to attach overnight at 37° C. in a 5% CO2 incubator. Polarographic analysis of OCR was performed using Seahorse XF Analyzer (Agilent Technologies, Santa Clara, Calif.) and a Seahorse XFp Cell Mito Stress Test Kit (Agilent Technologies, catalog number 103010-100). […] Data were analyzed by the software Wave (Version 2.3.0.20, Agilent Technologies, Santa Clara, Calif.)."}
{"smiles": "N#CC(C#N)=NNc1ccc(OC(F)(F)F)cc1", "note": "[FCCP]", "values": [{"measurement": "oxygen consumption rate after control compound addition", "value": "increases oxygen consumption rate"}]}
